Calls of active or inactive are those of the source.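 The calls were made as follows: active = compounds giving half or more protection of infected cells from virus-caused growth loss, again on retest; inactive = the rest.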
System: CEM cells HIV-1 protection, formazan growth assay
Assay: NCI AIDS Antiviral Assay
Conditions: for IC50: measured here: growth of uninfected CEM cells
Procedure, shortened: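 Protection of CEM cells against HIV-1 was scored from cell growth (soluble formazan) across five concentrations, with parallel uninfected cells. Lack of protection may reflect toxicity.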

Compound	EC50 [µM]	IC50 [µM]	outcome
CC1OC(OC2C(CO)OC(O[C@H]3CC[C@@]4(C)C(=CC[C@H]5[C@@H]6C[C@@H]7O[C@](O)(CC[C@H](C)COC8OC(CO)C(O)C(O)C8O)[C@@H](C)[C@@H]7[C@@]6(C)CC[C@@H]54)C3)C(OC3OC(C)C(O)C(O)C3O)C2O)C(O)C(O)C1O (stereo not given in full)	> 200	1.48	–
N#Cc1cc([N+](=O)[O-])ccc1NC(=O)C(=O)Nc1n[nH]c(N)n1	> 794	692	–
CC1=Nc2c(ccc3c2C(=O)c2ccccc2C3=O)NC(c2cccc3c2CCC3)C1 (stereo not given)	> 9.33	> 9.33	–
c1ccc(-c2ccnc3c2ccc2c(-c4ccccc4)ccnc23)cc1	> 21.9	11.5	–
COC1/C=C\C=C(/C)C(=O)NC2=CC(=O)C(NC3CC3)=C(CC(C)CC(OC)C(O)C(C)/C=C(/C)C1OC(N)=O)C2=O (stereo not given)	–	–	inactive
O=[N+]([O-])c1ccc(N=Cc2ccc(O)cc2)cc1	> 200	10	–
Cc1nc2c(Br)cc(Br)cc2c(=O)n1-c1ccccc1NC1OCC(O)C(O)C1O (stereo not given)	> 200	–	–
CCCCCCCCCCCCCCCCCC(=O)NCC(COP(=O)([O-])OCC[N+](C)(C)C)OCC (stereo not given)	–	–	inactive
CN(CC(O)C(O)CN(C)C(=S)S)C(=S)S (stereo not given)	> 661	170	–
C[C@H]1C=C2[C@@H]3CC(C)(C(=O)O)CC[C@]3(C)CC[C@]2(C)[C@]2(C)CC[C@H]3C(C)(C)[C@@H](OC(=O)c4cccc5c(=O)c6ccccc6[nH]c45)CC[C@]3(C)[C@@H]12 (stereo not given in full)	> 100	35.5	–
COC(=O)c1cc(CC(C)C)c2c(c1)[nH]c1ccccc12	> 35.5	> 35.5	–
Cc1ccc(S(=O)(=O)Nn2c(-c3ccccc3)c(C#N)c(-c3ccc([N+](=O)[O-])cc3)c(C#N)c2=O)cc1	> 200	56.2	–
Cc1ccc(OCC(=O)N2N=C(c3ccccc3)CC2(O)c2ccccc2)cc1 (stereo not given)	> 25.7	> 25.7	–
[N-]=[N+]=CC(=O)C1CCN(c2ccccc2)C1=O (stereo not given)	> 200	> 200	–
CCN=C(NC(=O)c1ccccc1Cl)SCSC(=NCC)NC(=O)c1ccccc1Cl	> 200	> 200	–
CCN(CC)CCn1ncc2c3c(=O)c4cccnc4n(CCN(CC)CC)c3ccc21	> 200	3.47	–

Compound	EC50 [µM]	IC50 [µM]	outcome
Nc1ccc(S(=O)(=O)N/N=C/c2ccco2)cc1	> 676	> 676	–
CC(=O)c1cc2cc3c4c(c2oc1=O)CCCN4CCC3	> 25.7	> 25.7	–
O=C(O)c1cc(Cc2ccc(O)c(C(=O)O)c2)ccc1O	562	871	active
Cc1ccnn1CCc1ccc(Cl)cc1Cl	> 200	95.5	–
NCCSSCCCCSSCCN	> 200	12.3	–
Nc1cc(-c2ccccc2)nn1-c1nsc2ccccc12	> 17.8	> 17.8	–
CC(C)C1=CC23CCC4C(C)(C(=O)O)CCCC4(C)C2CC1C1C(=O)N(CCCCCCN2C(=O)C4C5CC6C7(C)CCCC(C)(C(=O)O)C7CCC6(C=C5C(C)C)C4C2=O)C(=O)C13 (stereo not given)	> 269	7.41	–
CCOC(=O)CNC(=O)N(CC)C12CC3CC(CC(C3)C1)C2	> 200	129	–
BrC(/C=N/Nc1nnc(-c2ccccc2)c(-c2ccccc2)n1)C(Br)c1ccccc1 (stereo not given)	> 13.5	> 13.5	–
O=c1[nH]cc(NS(=O)(=O)O)c(=O)[nH]1	> 200	> 200	–
COc1cccc(NC(=O)CC(=O)NN)c1	> 200	> 200	–
OCCN1CCN(CCCN2c3cc(Cl)ccc3Sc3ccsc32)CC1	> 316	15.5	–
O=C(/C=C\c1ccsc1)c1ccccc1	> 200	3.24	–
CC(C)(C)[Si](C)(C)OCC1OC(n2ccc(=O)[nH]c2=O)C(CCN(O)CC2OC(n3ccc(=O)[nH]c3=O)C(O[Si](C)(C)C(C)(C)C)C2O[Si](C)(C)C(C)(C)C)C1O[Si](C)(C)C(C)(C)C (stereo not given)	> 126	105	–
O=C1c2ccccc2C(=O)c2c(O)ccc(O)c21	> 77.6	> 77.6	–

Reference: PubChem BioAssay AID179 (DTP/NCI, 2004)
